Measured values: patent US8173428B2, “LNA oligonucleotides and the treatment of cancer” (Santaris Pharma A/S, priority 2004, dated 2012)
Oligonucleotides are written 5' to 3', each unit as a sugar letter and its base; * is a phosphorothioate linkage, no mark a phosphodiester; rarer units and linkages stand in square brackets, end groups in braces. Plain capitals give the bases only. l = locked nucleic acid (LNA); [5mC] = 5-methylcytosine; d = 2'-deoxy (DNA)

Assays:
Bcl-2 mRNA = Bcl-2 mRNA expression by real-time PCR in 15PC3 cells; assay type: cell-based, human
Method: To determine the relative Survivin mRNA level in oligonucleotide treated and untreated cells, the generated cDNA was used in quantitative PCR analysis using an iCycler from BioRad. The cDNA was diluted 5-fold and 8 μl was mixed with 52 μl Taqman probe master mix containing 30 μl Platinum Quantitative PCR SuperMix UDG 2×PCR master mix (Invitrogen), 3 μl 20× Taqman probe and primer mix (forward primer: 5′[…] (SEQ ID NO:29), final 0.9 μM. Reverse primer: 5′[…] (SEQ ID NO:30), final 0.6 μM and taqman probe: FAM-[…]-TAMRA (SEQ ID NO:31), final 0.1 μM) and 19 μl H2O. The 60 μl were dispersed in two wells (96 well plates) with 25 μl in each well. For human Bcl-2 the PCR primers were:
forward primer: 5′ […] 3′ (final concentration in the assay; 0.6 μM) (SEQ ID NO: 32) reverse primer: 5′ […] 3′ (final concentration in the assay; 0.6 μM) (SEQ ID NO: 33) and the PCR probe was: 5′ FAM-[…]-TAMRA 3′ (final concentration in the assay; 0.1 μM) (SEQ ID NO: 34). […]
The primers and probe were obtained from […] (France). To normalize any variance in sample preparation, the endogenous GAPDH mRNA was quantified using a pre-developed Taqman assay reagent from Applied Biosystems (4310884E) according to manufacturer's Instructions. […] Relative quantities of Survivin mRNA were determined from the calculated threshold cycle using the iCycler IQ Real Time Detection System software.

[1] = Oligonucleotide content in cynomolgus monkey tissues (4 weeks repeat dose study); assay type: in vivo, cynomolgus monkeys; conditions: i.v. twice weekly for four weeks, then 4 weeks untreated
Method: In an i.v. 4 weeks repeat dose toxicity study in cynomolgus monkeys SEQ ID NO. 2 was administered at doses of 0, 6, 15 and 60 mg/kg/occasion twice weekly for four weeks. In the groups of animals receiving 0, 15 or 60 mg/kg/occasion some animals were followed for a recovery period of 4 weeks without treatment.
Tissues including liver and kidney samples were snap frozen and stored at −70° C. for subsequent analysis.
Tissues (˜100 mg) is weighed off (tissue is kept on dry-ice before and after weighing). 500 μl extraction buffer containing proteinase K (1 mg/ml) is added. The tissue is homogenized mechanically and the homogenate is incubated over night at 37° C.
Reference samples are prepared by dissolving SEQ ID NO. 2 in extraction buffer at the relevant concentration range. Exactly 100 mg liver tissue from un-treated animals is weighed off (kept on dry-ice before and after weighing). Extraction buffer (with proteinase K, 1 mg/ml) containing the reference material is added to the tissue samples to a total volume of 0.5 ml. The tissue is mechanically homogenized and is incubated over night at 37° C. The detection signal of SEQ ID NO. 2 from these samples is used to prepare a standard curve covering the lowest and the highest concentrations found in the treated animals.
Tissue samples are transferred to 2 ml microtubes with screw caps. […]

Substance: 5′-^MeCsTs^MeCsAsastscscsastsgsgs^MeCsAsGsc-3′ (l[5mC]*lT*l[5mC]*lA*dA*dT*dC*dC*dA*dT*dG*dG*l[5mC]*lA*lG*dC) [SEQ ID NO. 2]
- Bcl-2 mRNA expression (Bcl-2 mRNA; 10 nM, 24 hours, 15PC3 cells, single agent or combined with control oligonucleotides): have effects on Survivin and Bcl-2 expression
- Bcl-2 down-regulation (Bcl-2 mRNA; summary statement, conditions not given): down-regulation of Bcl-2
- Content in liver of recovery animals [1]: detectable
